Literature values, collected in patent publication US20070037707A1, “Plant growth regulator formulations” (HELENA HOLDING COMPANY, priority 2005, published 2007).

Columns and labels:
[1] = not given; remark: listed apart in the source
organically grown cotton = settings: used alone; compared with conventional chemistry like (2-chloroethyl) phosphonic acid

Row | SMILES | water solubility | pH of the pure product ([1]; according to the MSDS sheet for a formulated product) | pH range in which stable ([1]; at higher pH decomposes and liberates ethylene, Pesticide Manual) | effectiveness as cotton defoliant (organically grown cotton)
1 | O=P(O)(O)CCCl [(2-chloroethyl)phosphonic acid] | water soluble | 1.7 | below 3.5 | 
2 | O=C(O)CC(O)(CC(=O)O)C(=O)O [Citric acid] |  |  |  | not as effective
